According to publication PMC5737332:

Experiments:
[1] = system: AATAAT_ATTATT hairpin (DNA, hairpin) GGGGAATAATCGCGATTATTCCCCAATAATCGCGATTATT; assay: SPR competition; conditions: 200 mM NaCl, 3 mM EDTA, 10 mM HEPES pH 7.4, 0.05% P-20, 25 °C
[2] = system: AATAAT_ATTATT hairpin (DNA, hairpin) GGGGAATAATCGCGATTATTCCCCAATAATCGCGATTATT; assay: SPR (Biacore X-100); conditions: Na+ 200 mM; 25 °C; site 1 of 2; running buffer for compound titration not explicitly stated
[3] = system: AATT hairpin (DNA, hairpin) CGAATTCGTCTCCGAATTCG; assay: SPR (Biacore X-100); conditions: Na+ 200 mM; 25 °C; site 1 of 2; running buffer for compound titration not explicitly stated
[4] = system: (AT)4 hairpin (DNA, hairpin) CATATATATCCCCATATATATG; assay: SPR (Biacore X-100); conditions: Na+ 200 mM; 25 °C; site 1 of 2; running buffer for compound titration not explicitly stated
[5] = system: (CG)4 hairpin (DNA, hairpin) CGCGCGCGTTTTCGCGCGCG; assay: SPR (Biacore X-100); conditions: Na+ 200 mM; 25 °C; one-site fit; running buffer for compound titration not explicitly stated
HMGB1 box A and box B = HMGB1 box A and box B (rat, UniProt P63159 8-165); assay: SPR; K1, high-affinity site of two-site fit; SPR (Biacore X-100), HEPES 1 buffer: 10 mM HEPES, 3 mM EDTA, 200 mM NaCl, 0.05% P-20, pH 7.4, 25 C; conditions: protein: recombinant; tags: GST (GST-tagged construct in pGEX2T); label: 5'-biotin; hairpin as stated by the authors; loop underlining lost in text
Chain of HMGB1 box A and box B (P63159 8-165): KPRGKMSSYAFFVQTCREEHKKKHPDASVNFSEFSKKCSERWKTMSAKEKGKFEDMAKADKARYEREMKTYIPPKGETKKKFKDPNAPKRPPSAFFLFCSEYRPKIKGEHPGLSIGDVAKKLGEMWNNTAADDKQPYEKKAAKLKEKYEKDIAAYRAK

Molecule | IC50 ([1]; displaces 2 μM HMGA1a(Δ50-91) protein) | IC50 ([1]; displaces 2 μM HMGB1 (box A+B) protein) | K1 (KD) [2] | K1 (KD) [3] | K1 (KD) [4] | K (KD) [5] | Kd (HMGB1 box A and box B)
O=C(Nc1ccc(NC2=NCCN2)c(Cl)c1)c1ccc(NC2=NCCN2)cc1 | 6000 nM | 3400 nM | 430 nM | 262 nM | 650 nM | 6850 nM | –
GGGGAATAATCGCGATTATTCCCCAATAATCGCGATTATT (structured_DNA) [AATAAT_ATTATT hairpin] | – | – | – | – | – | – | 330 nM
